The results in this text go back to patent US8017612B2, “Piperazine compound and use thereof as a HCV polymerase inhibitor” (priority 2006, dated 2011).

One may read the IC50 as the concentration that gives 50% inhibition. Low values mean higher potency, high ones lower potency.

Test [1] addresses T1, HCV polymerase (NS5B) type 1b (Hepatitis C virus genotype 1b, UniProt P26663).
T1 construct: a region encoding NS5B (J Virol 1991 March, 65(3), 1105-13, 544 amino acids after deletion of 47 amino acids on the C-terminal); 6xHis (C); made in house; host or cells: Escherichia coli
Put plainly: Assay of enzyme (HCV polymerase) inhibitory activity, type 1b enzyme. The class given is biochemical, HCV BK strain (type 1b). The following applies: HCV polymerase inhibitory activity IC50, 1b, type 1b enzyme. The method in brief: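 His-tagged, C-terminally truncated NS5B (BK strain, 1b; 0.5 μg/ml) incubated with compound 60 min at 25 °C on 3′UTR-derived substrate RNA (5 μg/ml), 50 μM ATP/GTP/CTP, 2 μM UTP plus [3H]UTP, pH 7.5. Acid-precipitated RNA counted; IC50 from radioactivity with and without compound.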

Test [2] concerns the target T2, HCV polymerase (NS5B) type 1a (Hepatitis C virus genotype 1a, UniProt P26664).
T2 construct: made in house; host or cells: Escherichia coli (by the 'similar method' of the 1b enzyme)
Put plainly: Assay of enzyme (HCV polymerase) inhibitory activity, type 1a enzyme. In kind it is biochemical, HCV type 1a (cloned from the blood of patients). The note with it: HCV polymerase inhibitory activity IC50, 1a, type 1a enzyme. In a few lines:
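His-tagged NS5B, C-terminal 47 residues deleted, type 1a at 1.5 μg/ml, with 5 μg/ml HCV 3′UTR substrate RNA, 50 μM ATP/GTP/CTP, 2 μM UTP plus [3H]UTP, pH 7.5 Tris, 5 mM MgCl2; 60 min at 25° C. TCA-precipitated RNA counted by scintillation; IC50 from radioactivity with vs. without compound.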

On to `CCCc1ccc(CNC(=O)[C@H]2CN(c3cc(C)n(CC(=O)O)n3)CCN2S(=O)(=O)c2ccc(OC(F)(F)F)cc2)cc1` [Example 1094, {5-methyl-3-[(R)-3-(4-propyl-benzylcarbamoyl)-4-(4-trifluoromethoxy-benzenesulfonyl)-piperazin-1-yl]-pyrazol-1-yl}-acetic acid], for which the IC50 in test [1] and in test [2] was 100 to 1000 nM in each case.
`CC[N+](CC)(CC)Cc1cnc(N2CCN(S(=O)(=O)c3ccc(OC(F)(F)F)cc3)[C@@H](C(=O)NCc3ccc(C(C)(C)C)cc3)C2)cn1` [Example 1095, [(R)-3-(4-tert-butyl-benzylcarbamoyl)-4-(4-trifluoromethoxy-benzenesulfonyl)-3,4,5,6-tetrahydro-2H-[1,2′]bipyrazinyl-5′-ylmethyl]-triethyl-ammonium trifluoro-methanesulfonate]: the IC50 in test [1] and in test [2] was 100 to 1000 nM each time.
With `CCC(F)(F)c1ccc(CNC(=O)[C@H]2CN(C(=O)Cn3nnc(N)n3)CCN2S(=O)(=O)c2ccc(OC(F)(F)F)cc2)cc1` [Example 1096, (R)-4-[2-(5-amino-tetrazol-2-yl)-acetyl]-1-(4-trifluoromethoxy-benzenesulfonyl)-piperazine-2-carboxylic acid 4-(1,1-difluoro-propyl)-benzylamide], the IC50 in test [1] and in test [2] was below 100 nM in each case.
Take `CCC(F)(F)c1ccc(CNC(=O)[C@H]2CN(C(=O)Cn3nnnc3N)CCN2S(=O)(=O)c2ccc(OC(F)(F)F)cc2)cc1` [Example 1097, (R)-4-[2-(5-amino-tetrazol-1-yl)-acetyl]-1-(4-trifluoromethoxy-benzenesulfonyl)-piperazine-2-carboxylic acid 4-(1,1-difluoro-propyl)-benzylamide]: the IC50 in test [1] and in test [2] was 100 to 1000 nM each time.
For the compound `O=C(NCc1ccc(OC(F)(F)F)cc1)[C@H]1CN(c2nc3nc(CCO)ncc3s2)CCN1S(=O)(=O)c1ccc(OC(F)(F)F)cc1` [Example 1098, (R)-4-[5-(2-hydroxy-ethyl)-thiazolo[4,5-d]pyrimidin-2-yl]-1-(4-trifluoromethoxy-benzenesulfonyl)-piperazine-2-carboxylic acid 4-trifluoromethoxy-benzylamide], the IC50 in test [1] and in test [2] was below 100 nM in each case.
In the case of `O=C(NCc1ccc(OC(F)(F)F)cc1)[C@H]1CN(c2nc3nc(C4CC4)ncc3s2)CCN1S(=O)(=O)c1ccc(C2CC2)cc1` [Example 1099, (R)-1-(4-cyclopropyl-benzenesulfonyl)-4-(5-cyclopropyl-thiazolo [4,5-d]pyrimidin-2-yl)-piperazine-2-carboxylic acid 4-trifluoromethoxy-benzylamide], the IC50 in test [1] and in test [2] was below 100 nM throughout.
In the case of `O=C(NCc1ccc(OC(F)(F)F)cc1)[C@H]1CN(c2nc3nc(C(F)(F)F)ncc3s2)CCN1S(=O)(=O)c1ccc(C2CC2)cc1` [Example 1100, (R)-4-(5-trifluoromethyl-thiazolo[4,5-d]pyrimidin-2-yl)-1-(4-cyclopropyl-benzenesulfonyl)-piperazine-2-carboxylic acid 4-trifluoromethoxy-benzylamide], the IC50 in test [1] and in test [2] was below 100 nM each time.
In the case of `O=C(NCc1ccc(OC(F)(F)F)c(F)c1)[C@H]1CN(c2nc3nc(C4CC4)ncc3s2)CCN1S(=O)(=O)c1ccc(C(F)(F)F)cc1` [Example 1101, (R)-4-(5-cyclopropyl-thiazolo[4,5-d]pyrimidin-2-yl)-1-(4-trifluoromethyl-benzenesulfonyl)-piperazine-2-carboxylic acid 3-fluoro-4-trifluoromethoxy-benzylamide], the IC50 in test [1] and in test [2] was below 100 nM throughout.
As to `O=C(NCc1ccc(OC(F)(F)F)c(F)c1)[C@H]1CN(c2nc3nc(C4CC4)ncc3s2)CCN1S(=O)(=O)c1ccc(OC(F)(F)F)cc1` [Example 1102, (R)-4-(5-cyclopropyl-thiazolo[4,5-d]pyrimidin-2-yl)-1-(4-trifluoromethoxy-benzenesulfonyl)-piperazine-2-carboxylic acid 3-fluoro-4-trifluoromethoxy-benzylamide], the IC50 in test [1] and in test [2] was below 100 nM throughout.
On to `CC(=O)N1CCN(S(=O)(=O)c2ccc(OC(F)(F)F)cc2)[C@@H](C(=O)NCc2ccc(OC(F)(F)F)c(F)c2)C1` [Example 1103, (R)-4-acetyl-1-(4-trifluoromethoxy-benzenesulfonyl)-piperazine-2-carboxylic acid 3-fluoro-4-trifluoromethoxy-benzylamide], for which the IC50 in test [1] and in test [2] was 100 to 1000 nM in each case.
For the compound `O=C(O)c1cncc2sc(N3CCN(S(=O)(=O)c4ccc(OC(F)(F)F)cc4)[C@@H](C(=O)NCc4ccc(OC(F)(F)F)cc4)C3)nc12` [Example 1104, 2-[(R)-4-(4-trifluoromethoxy-benzenesulfonyl)-3-(4-trifluoromethoxy-benzylcarbamoyl)-piperazin-1-yl]-thiazolo[5,4-c]pyridine-7-carboxylic acid], the IC50 in test [1] and in test [2] was below 100 nM throughout.
For `O=C(NCc1ccc(OC(F)(F)F)cc1)[C@H]1CN(c2nn3c(CO)cc(=O)nc3s2)CCN1S(=O)(=O)c1ccc(OC(F)(F)F)cc1` [Example 1105], the IC50 in test [1] was below 100 nM; in test [2] it was 100 to 1000 nM.
In the case of `O=C(O)Cn1ncc2sc(N3CCN(S(=O)(=O)c4ccc(OC(F)(F)F)cc4)[C@@H](C(=O)NCc4ccc(OC(F)(F)F)cc4)C3)nc2c1=O` [Example 1106, {4-oxo-2-[(R)-4-(4-trifluoromethoxy-benzenesulfonyl)-3-(4-trifluoromethoxy-benzylcarbamoyl)-piperazin-1-yl]-4H-thiazolo[4,5-d]pyridazin-5-yl}-acetic acid], the IC50 in test [1] and in test [2] was below 100 nM throughout.
For the compound `O=C(NCc1ccc(OC(F)(F)F)cc1)[C@H]1CN(c2nc3nc(C4CC4)[nH]c(=O)c3s2)CCN1S(=O)(=O)c1ccc(C(F)(F)F)cc1` [Example 1107, (R)-4-(5-cyclopropyl-7-oxo-6,7-dihydro-thiazolo[4,5-d]pyrimidin-2-yl)-1-(4-trifluoromethyl-benzenesulfonyl)-piperazine-2-carboxylic acid 4-trifluoromethoxy-benzylamide], the results for the IC50 in test [1] and in test [2] were below 100 nM and 100 to 1000 nM, respectively.
On to `O=C(NCc1ccc(OC(F)(F)F)cc1)[C@H]1CN(c2nc3nc(C4CC4)[nH]c(=O)c3s2)CCN1S(=O)(=O)c1ccc(OC(F)(F)F)cc1` [Example 1108, (R)-4-(5-cyclopropyl-7-oxo-6,7-dihydro-thiazolo[4,5-d]pyrimidin-2-yl)-1-(4-trifluoromethoxy-benzenesulfonyl)-piperazine-2-carboxylic acid 4-trifluoromethoxy-benzylamide], for which the IC50 was below 100 nM in test [1] and 100 to 1000 nM in test [2].
In the same order, the values of `O=C(O)c1cncc2sc(N3CCN(S(=O)(=O)c4ccc(OC(F)(F)F)cc4)[C@@H](C(=O)NCc4ccc(OC(F)F)c(F)c4)C3)nc12` [Example 1109, 2-[(R)-3-(4-difluoromethoxy-3-fluoro-benzylcarbamoyl)-4-(4-trifluoromethoxy-benzenesulfonyl)-piperazin-1-yl]-thiazolo[5,4-c]pyridine-7-carboxylic acid] are below 100 nM and below 100 nM.
